Measured values taken from ChEMBL document CHEMBL1201862, “PubChem BioAssay data set” (2004).
Calls of active or inactive are those of the source.

What was measured:
[1] = inhibitors of intracellular T. cruzi replication, confirmation, NIH3T3 host cells, beta-gal luminescence (AID 2044); assay type: functional, cell-based;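 also: intracellular parasites grown in NIH/3T3 mouse fibroblasts as host cells; luminescent beta-galactosidase reporter signal from transgenic T. cruzi replicating inside host cells; inhibitors lower the luminescence signal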
[2] = cytotoxicity toward NIH3T3 fibroblasts, dose response, counter-screen, cell-based, ATP luminescence, mouse fibroblasts (AID 2010); assay type: functional;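 also: cells exposed to compound for about 90 hours before reading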
[3] = molecular target: Cytochrome P450 2C19 (Homo sapiens, UniProt P33261); assay: Cytochrome panel assay with activity outcomes. Panel member name: p450-cyp2c19 Compounds with AC50 equal or less than 10 uM are considered active; assay type: functional
[4] = molecular target: T1, Cytochrome P450 1A2 (Homo sapiens, UniProt P05177);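 also: PubChem cytochrome P450 panel assay, CYP1A2 panel member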
T1 sequence (P05177 whole entry): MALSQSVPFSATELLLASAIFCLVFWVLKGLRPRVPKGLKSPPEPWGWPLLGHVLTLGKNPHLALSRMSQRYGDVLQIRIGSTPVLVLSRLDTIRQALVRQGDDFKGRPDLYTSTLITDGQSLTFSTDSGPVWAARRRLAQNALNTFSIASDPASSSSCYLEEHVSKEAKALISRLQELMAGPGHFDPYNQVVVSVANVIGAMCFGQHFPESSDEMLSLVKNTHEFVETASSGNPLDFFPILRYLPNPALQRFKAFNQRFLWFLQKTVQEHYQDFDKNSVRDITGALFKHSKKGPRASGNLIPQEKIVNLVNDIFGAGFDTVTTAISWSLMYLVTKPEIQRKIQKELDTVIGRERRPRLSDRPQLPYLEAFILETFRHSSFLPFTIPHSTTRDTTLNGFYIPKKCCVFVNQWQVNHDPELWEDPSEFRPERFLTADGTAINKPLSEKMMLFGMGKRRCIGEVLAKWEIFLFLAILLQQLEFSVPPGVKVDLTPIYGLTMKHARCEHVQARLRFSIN

[5] = molecular target: T2, Rac GTPase-activating protein 1 (Homo sapiens, UniProt Q9H0H5); assay: MgcRacGAP GTPase-activating activity inhibitors, confirmation, biochemical, ADP Hunter fluorescence, primary and confirmatory (AID 624330); assay type: functional
T2 sequence (Q9H0H5 whole entry): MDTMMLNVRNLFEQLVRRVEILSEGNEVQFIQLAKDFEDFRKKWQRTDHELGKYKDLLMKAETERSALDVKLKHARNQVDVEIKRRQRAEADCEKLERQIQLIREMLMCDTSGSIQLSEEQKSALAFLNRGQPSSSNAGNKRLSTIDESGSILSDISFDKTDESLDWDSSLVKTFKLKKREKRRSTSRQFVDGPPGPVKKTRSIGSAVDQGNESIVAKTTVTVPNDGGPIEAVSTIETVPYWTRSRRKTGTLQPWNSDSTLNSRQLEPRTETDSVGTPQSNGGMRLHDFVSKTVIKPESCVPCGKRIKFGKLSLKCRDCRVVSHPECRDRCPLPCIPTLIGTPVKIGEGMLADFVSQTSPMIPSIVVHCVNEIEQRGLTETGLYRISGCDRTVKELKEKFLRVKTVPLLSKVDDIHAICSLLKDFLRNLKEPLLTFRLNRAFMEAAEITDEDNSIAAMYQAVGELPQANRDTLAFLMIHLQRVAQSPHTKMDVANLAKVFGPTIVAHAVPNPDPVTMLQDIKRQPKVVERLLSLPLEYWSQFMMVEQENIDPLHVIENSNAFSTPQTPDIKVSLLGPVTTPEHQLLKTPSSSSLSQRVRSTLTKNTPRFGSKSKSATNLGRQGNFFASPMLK

[6] = tested on: Streptococcus sp. 'group A'; assay: growth inhibition of control SK(-) GAS strain, dose response, counter-screen for streptokinase expression inhibitor project, luminescence, kanamycin, BacTiterGlo, confirmation (AID 1900); assay type: functional, organism-based
[7] = tested on: Streptococcus; assay: Group A Streptococcus viability loss, dose response, counter-screen for streptokinase expression inhibitor project, luminescence, BacTiterGlo (AID 1915); assay type: functional, organism-based;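 also: potency for reduction of bacterial viability or growth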
[8] = molecular target: T3, Corticotropin-releasing factor receptor 2/Corticotropin-releasing factor-binding protein (Homo sapiens, UniProt P24387+Q13324); assay: activators of CRF receptor 2 with binding protein – uHTS hits, confirmation (AID 602473); assay type: functional; conditions: read-out: EC50_Mean
T3 sequence (Q13324 whole entry): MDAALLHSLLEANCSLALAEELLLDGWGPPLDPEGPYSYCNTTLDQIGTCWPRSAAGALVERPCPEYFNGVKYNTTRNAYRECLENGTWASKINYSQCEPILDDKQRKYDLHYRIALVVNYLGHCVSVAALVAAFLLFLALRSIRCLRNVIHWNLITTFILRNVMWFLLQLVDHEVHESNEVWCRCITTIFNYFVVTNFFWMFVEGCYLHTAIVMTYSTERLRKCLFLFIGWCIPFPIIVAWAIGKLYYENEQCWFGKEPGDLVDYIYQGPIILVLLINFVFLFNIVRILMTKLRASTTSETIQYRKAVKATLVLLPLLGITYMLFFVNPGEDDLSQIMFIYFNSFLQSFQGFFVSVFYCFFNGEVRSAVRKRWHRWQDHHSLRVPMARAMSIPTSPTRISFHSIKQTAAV
T3 sequence (P24387 whole entry): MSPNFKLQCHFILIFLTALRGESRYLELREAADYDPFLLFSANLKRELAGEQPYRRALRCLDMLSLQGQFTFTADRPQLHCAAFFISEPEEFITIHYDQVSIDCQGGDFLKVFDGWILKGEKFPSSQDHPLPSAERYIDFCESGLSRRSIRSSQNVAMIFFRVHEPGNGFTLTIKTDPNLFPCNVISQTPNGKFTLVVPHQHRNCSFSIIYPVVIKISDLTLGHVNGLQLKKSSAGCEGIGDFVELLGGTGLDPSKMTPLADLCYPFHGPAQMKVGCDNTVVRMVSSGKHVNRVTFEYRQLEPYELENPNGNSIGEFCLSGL

[9] = Luminescence Cell-Based Dose Response HTS to Identify Activators of Luciferase Translation or Activity in H4 […] Cells. [Related pubchem assays: 1829 (Project Summary), 1814 (Primary HTS)]; assay type: functional
[10] = tested on: H4; assay: Luminescence Cell-Based Dose Response HTS to Identify Activators of 5'UTR Stem-Loop Driven Prion Protein mRNA Translation in H4 Neuroglioblastoma Cells. [Related pubchem assays: 1829 (Project Summary), 1814 (Primary HTS)]; assay type: functional; conditions: Homo sapiens
[11] = Shn3 3'UTR reporter inhibitors, dose response, cell-based, Clone20 osteoblasts, firefly luciferase, cherry-picked (AID 624132); assay type: functional;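 also: firefly luciferase luminescence from reporter carrying the Shn3 3'UTR in osteoblasts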

Chain of Cytochrome P450 2C19 (P33261 whole entry): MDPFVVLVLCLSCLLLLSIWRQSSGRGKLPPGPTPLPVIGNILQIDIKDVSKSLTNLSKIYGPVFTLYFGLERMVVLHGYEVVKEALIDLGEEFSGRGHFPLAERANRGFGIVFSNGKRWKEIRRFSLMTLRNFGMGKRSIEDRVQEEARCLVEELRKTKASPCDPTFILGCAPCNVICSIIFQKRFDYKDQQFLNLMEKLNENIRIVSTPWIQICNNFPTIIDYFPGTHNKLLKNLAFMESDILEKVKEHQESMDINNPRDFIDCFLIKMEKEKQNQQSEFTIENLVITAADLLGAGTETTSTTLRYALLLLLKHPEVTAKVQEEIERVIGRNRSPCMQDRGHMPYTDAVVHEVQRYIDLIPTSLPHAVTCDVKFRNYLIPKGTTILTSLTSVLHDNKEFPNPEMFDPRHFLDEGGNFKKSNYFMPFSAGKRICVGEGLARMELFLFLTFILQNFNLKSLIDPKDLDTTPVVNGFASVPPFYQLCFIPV

C1CCC(CNc2c3c(nc4nnnn24)CCCC3)CC1
EC50 [1]: 1.87 µM (active)
EC50 [2]: > 60 µM (not active)

C[C@H](CCC(=O)O)[C@H]1CC[C@]2(C)[C@@H]3C(=O)C[C@H]4C(C)(C)[C@@H](O)CC[C@]4(C)[C@H]3C(=O)C[C@@]12C
AC50 [3]: inconclusive

C[C@@]12CC[C@H](O)C[C@@H]1CC[C@@H]1[C@@H]2CC[C@@]2(C)[C@@H](C3=CC(=O)OC3)[C@H](O)C[C@]12O
AC50 [3]: inconclusive

CCn1cc(CN2CCCC(C(=O)c3cccc(OC)c3)C2)c(C)n1 (stereo not drawn)
EC50 [1]: 0.426 µM (active)
EC50 [2]: > 60 µM (inconclusive)

CCN(Cc1ccncc1)C(=O)c1cc(COc2c(C)cccc2C)on1
EC50 [1]: 1.42 µM (active)
EC50 [2]: > 60 µM (not active)

COc1cccc(/C=N/N2CCN(c3ccncc3S(=O)(=O)N3CCCCC3)CC2)c1
EC50 [1]: 1.71 µM (active)
EC50 [2]: > 60 µM (not active)

O=C(NCCCN1CCOCC1)c1ccc(Sc2ccc(F)cc2)c([N+](=O)[O-])c1
EC50 [1]: 1.01 µM (active)
EC50 [2]: > 60 µM (inconclusive)

C[C@@H]1CCc2cc(F)cc3c(=O)c(C(=O)O)cn1c23
AC50 [4]: 12.6 µM (inconclusive)

Nc1ccc(N2CCCC2)c(S(=O)(=O)Nc2cccc(C(F)(F)F)c2)c1
IC50 [5]: 120 µM (active)

O=C1[C@H]2C(c3ccccc3)=NN(c3ccccc3)[C@H]2C(=O)N1c1ccccc1
EC50 [6]: 0.614 µM (active)
EC50 [7]: 3.62 µM (active)

Cc1cc(C)c2c(N)c(C(=O)c3ccccc3)sc2n1
EC50 [1]: 0.225 µM (active)
EC50 [2]: > 60 µM (not active)

Cc1c(NC(=O)c2ccc(-c3ccc([N+](=O)[O-])cc3Cl)o2)c(=O)n(-c2ccccc2)n1C
EC50 [1]: 0.839 µM (active)
EC50 [2]: > 60 µM (inconclusive)

CCOC(=O)Nc1ccc(OC(=O)Oc2ccc(NC(=O)OCC)cc2)cc1
IC50 [5]: 31.8 µM (active)

Cc1ccc(C(=O)Nc2c(C#N)c(C)c(C)n2Cc2ccccc2)cc1
AC50 ([3]; read-out: AC50): 0.447 µM (inconclusive)

CC1CCC2CCCCC2N1C(=O)c1cc([N+](=O)[O-])cc([N+](=O)[O-])c1 (stereo not drawn)
EC50 [1]: 0.212 µM (active)
EC50 [2]: > 60 µM (not active)

CCC(=O)Nc1ccc(Nc2ccccc2)cc1
IC50 [5]: 53.6 µM (active)

Cc1ccccc1C1c2[nH]c3ccccc3c2C[C@H]2C(=O)N(C3CCN(Cc4ccccc4)CC3)CC(=O)N12 (stereo partly drawn)
EC50 [1]: 1.98 µM (active)
EC50 [2]: 13.3 µM (active)

CN1CCN(c2ncc3nc(-c4cccs4)c(=O)n(CCc4ccccc4)c3n2)CC1
AC50 [4]: 2.51 µM (inconclusive)

Cc1ccc(Cc2cnc(N3C(=N)SC(c4ccccc4)C3=O)s2)cc1 (stereo not drawn)
EC50 [6]: 0.181 µM (active)
EC50 [7]: 5.16 µM (active)

CCCCn1cnc2c(SC)ncnc21
AC50 [4]: 3.16 µM (inconclusive)

O=C(Nc1ccccc1)N1CC[C@@]2(CCCN(C(=O)c3ccco3)C2)C1
AC50 [4]: 10 µM (inconclusive)

O=C(NC1CCN(Cc2ccccc2)CC1)C1CCN(S(=O)(=O)c2ccccc2)CC1
EC50 [1]: 0.424 µM (active)
EC50 [2]: > 60 µM (not active)

CCC1CCCCN1CC(=O)c1c(C)[nH]c2ccccc12 (stereo not drawn)
EC50 [8]: 22.6 µM (active)

COc1ccc(CNc2ccc(N3CCN(C(C)=O)CC3)cc2)cc1OC
IC50 [5]: 12 µM (active)

Cc1[nH]c2ccccc2c1SCc1nnc(SCc2ccc(Cl)cc2)n1C
EC50 [1]: 3.54 µM (active)
EC50 [2]: 12.3 µM (active)

COc1ccc(CN2CCC(N3CC(C)OC(C)C3)CC2)c(OC)c1OC (stereo not drawn)
IC50 [5]: 66 µM (active)

COc1cc(CN2CCCC(CO)(Cc3cccc(Cl)c3)C2)cc2c1OCO2 (stereo not drawn)
EC50 [1]: 0.419 µM (active)
EC50 [2]: > 60 µM (not active)

O=C(Nc1cccc(F)c1)N1CC=C(c2ccc(Cl)cc2)CC1
EC50 [1]: 1.48 µM (active)
EC50 [2]: > 60 µM (not active)

COc1ccc(CN2CCN(Cc3ccc(Br)cc3)CC2)c(OC)c1OC
IC50 [5]: 70.2 µM (active)

COc1cc(/C=N/Nc2nc3ccccc3s2)ccc1O
IC50 [5]: 69.6 µM (active)

CC1=NN(c2ccccc2)C(=O)C1C(=O)c1ccc(Cl)cc1 (stereo not drawn)
AC50 ([3]; read-out: AC50): 39.8 µM (inconclusive)

CCOc1ccccc1/C=N\Nc1cnn(Cc2ccccc2)c(=O)c1Cl
EC50 [1]: 3.38 µM (active)
EC50 [2]: > 60 µM (inconclusive)

OCCCCNc1cccc2ccccc12
IC50 [5]: 22.8 µM (active)

CCC(=O)Nc1ccc2nc(C3CC3)n(Cc3ccc(C(C)(C)C)cc3)c(=O)c2c1
EC50 [1]: 0.325 µM (active)
EC50 [2]: > 60 µM (not active)

Nc1nc(NCCOCCO)nc(N2CCCCCC2)c1[N+](=O)[O-]
EC50 [6]: 5.73 µM (active)
EC50 [7]: 8.6 µM (active)

CC(=O)Nc1sc2c(c1C(N)=O)CCCC2
AC50 ([3]; read-out: AC50): 35.5 µM (inconclusive)

CCOc1ccccc1N(C)C(=O)c1cc2c(=O)n(CC)c3ccccc3c2s1
EC50 [1]: 1.43 µM (active)
EC50 [2]: > 60 µM (not active)

COC(=O)c1c(-c2ccc3ccccc3c2)csc1NC(=O)Cc1ccc(OC)c(OC)c1
AC50 [4]: 11.2 µM (inconclusive)

O=C(O)C1C2C=CC3(CN(Cc4ccccn4)C(=O)C13)O2 (stereo not drawn)
AC50 [3]: inconclusive

COC(=O)N1N=C(c2ccc(Br)cc2)CC1(O)C(F)(F)F (stereo not drawn)
EC50 [9]: 2.85 µM (active)
EC50 [10]: 0.745 µM (active)

CCC(=O)Nc1cccc(-n2nnnc2SCC(=O)N2CCCCC2)c1
EC50 [8]: 11.7 µM (active)

Cc1ccc(S(=O)(=O)C(C#N)c2nc3ccccc3nc2N2CCCC2)cc1 (stereo not drawn)
EC50 [8]: > 53 µM (inactive)

CN(C)C(=O)c1ccc(-c2cc(Nc3ccccc3)ncn2)cc1
AC50 [4]: 12.6 µM (inconclusive)

CCC(CC)C(=O)NC1CCSC1=O (stereo not drawn)
AC50 [3]: inconclusive
AC50 [4]: 39.8 µM (inconclusive)

S=C(NCCN1CCOCC1)Nc1ccc(Nc2ccccc2)cc1
IC50 [5]: 129 µM (active)

Cc1ccc(S(=O)(=O)NCCc2cc3ccc(C)cc3nc2O)cc1
AC50 [11]: > 70 µM (inactive)

Cc1ccn2c(S)nnc2c1
IC50 [5]: 19.4 µM (active)
